Assay results reported in PubChem BioAssay AID256 (DTP/NCI, 2004).
“And” between values parts separate entries of the source, which are not always exact repeats. Equal values may be shown once. Inconclusive results and toxic doses are left out. The calls were made as follows: active = survival T/C of 150% or more; inactive = T/C below 125% in these data.

Tested on: CD2F1 mice, L1210 leukemia ip, survival T/C
Experiment: NCI In Vivo Anticancer Drug Screen. Data for tumor model L1210 Leukemia (intraperitoneal) in CD2F1 (CDF1) mice
Conditions: endpoint: mean survival time, higher = longer survival
Procedure, shortened: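 Mice carrying a transplanted tumor received test compound or vehicle alone. The value is the measurement in the treated group divided by that in the vehicle-treated control group.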

[1] = dose: 100.0 mg/kg/injection, schedule: Q01DX001 (ip), vehicle: saline
[2] = dose: 200.0 mg/kg/injection, schedule: Q01DX001 (ip), vehicle: saline
[3] = dose: 100.0 mg/kg/injection, schedule: Q01DX009 (ip), vehicle: saline with Tween-80
[4] = dose: 200.0 mg/kg/injection, schedule: Q01DX009 (ip), vehicle: saline with Tween-80
[5] = dose: 400.0 mg/kg/injection, schedule: Q01DX009 (ip), vehicle: saline with Tween-80
[6] = dose: 25.0 mg/kg/injection, schedule: Q04DX002 (ip), vehicle: saline
[7] = dose: 50.0 mg/kg/injection, schedule: Q04DX002 (ip), vehicle: saline
[8] = dose: 100.0 mg/kg/injection, schedule: Q04DX003 (ip), vehicle: saline with Tween-80
[9] = dose: 200.0 mg/kg/injection, schedule: Q04DX003 (ip), vehicle: saline with Tween-80
[10] = dose: 400.0 mg/kg/injection, schedule: Q04DX003 (ip), vehicle: saline with Tween-80

Measured: T/C

CCCOC(C(=O)OC1CCN(C)CC1)(c1ccccc1)c1ccccc1
inactive: dose: 12.5 mg/kg/injection, schedule: Q04DX003 (ip), vehicle: saline 108 % of control | dose: 25.0 mg/kg/injection, schedule: Q04DX003 (ip), vehicle: saline 102 % of control | dose: 50.0 mg/kg/injection, schedule: Q04DX003 (ip), vehicle: saline 97 % of control

Cc1nc(N)[nH]c(=O)c1Cc1ccccc1O
inactive: [1] 100 % of control | [2] 97 % of control | dose: 400.0 mg/kg/injection, schedule: Q01DX001 (ip), vehicle: saline 97 % of control

CC(C)(C)c1ccc(O)c(Sc2cc(C(C)(C)C)ccc2O)c1
inactive: dose: 50.0 mg/kg/injection, schedule: Q01DX009 (ip), vehicle: other 96 % of control | dose: 100.0 mg/kg/injection, schedule: Q01DX009 (ip), vehicle: other 98 % of control | [3] 98 % of control | dose: 200.0 mg/kg/injection, schedule: Q01DX009 (ip), vehicle: other 101 % of control | [4] 103 % of control | [5] 94 % of control

CC1OC(OC2CC(O)(C(=O)CO)Cc3c(O)c4c(c(O)c32)C(=O)c2ccccc2C4=O)CC(N)C1O (configuration not stated)
active: dose: 0.13 mg/kg/injection, schedule: Q01DX009 (ip), vehicle: water 151 % of control | dose: 0.25 mg/kg/injection, schedule: Q01DX009 (ip), vehicle: water 175 % of control
inactive: dose: 0.03 mg/kg/injection, schedule: Q01DX009 (ip), vehicle: water 114 % of control | dose: 1.0 mg/kg/injection, schedule: Q01DX009 (ip), vehicle: water 102 % of control

Nc1ncnc2c1ncn2C1OC(C(=O)OCCO)C(O)C1O (configuration not stated)
inactive: dose: 12.5 mg/kg/injection, schedule: Q01DX009 (ip), vehicle: saline 108 % of control | dose: 25.0 mg/kg/injection, schedule: Q01DX009 (ip), vehicle: saline 114 % of control | dose: 25.0 mg/kg/injection, schedule: Q01DX009 (ip), vehicle: suspension in saline 110 % of control | [6] 93 % of control | dose: 50.0 mg/kg/injection, schedule: Q01DX009 (ip), vehicle: suspension in saline 124 % of control | [7] 95 % of control | dose: 100.0 mg/kg/injection, schedule: Q04DX002 (ip), vehicle: saline 93 % of control | dose: 200.0 mg/kg/injection, schedule: Q04DX002 (ip), vehicle: saline 90 % of control

O=C(CNC(=O)NCc1ccco1)NNC(=O)Nc1ccc(F)c(Cl)c1
inactive: [3] 93 % of control | [4] 88 % of control | [5] 96 % of control

O=c1[nH]c2cc(Cl)ccc2c2ccc(Cl)cc12
inactive: dose: 50.0 mg/kg/injection, schedule: Q01DX001 (ip), vehicle: carboxymethylcellulose (CMC) 98 % of control | dose: 100.0 mg/kg/injection, schedule: Q01DX001 (ip), vehicle: carboxymethylcellulose (CMC) 98 % of control | dose: 200.0 mg/kg/injection, schedule: Q01DX001 (ip), vehicle: carboxymethylcellulose (CMC) 104 % of control | dose: 400.0 mg/kg/injection, schedule: Q01DX001 (ip), vehicle: carboxymethylcellulose (CMC) 95 % of control

Cc1ccc(C2(C(=O)O)CCCC2)cc1
inactive: [3] 96 % of control | [8] 97 % of control | [4] 97 % of control | [9] 98 % of control | [5] 90 % of control | [10] 95 % of control

COc1ccc(CC(=O)NC(C)Cc2ccc(OC)c(OC)c2)cc1OC (configuration not stated)
inactive: dose: 12.5 mg/kg/injection, schedule: Q01DX009 (ip), vehicle: water 91 % of control | dose: 25.0 mg/kg/injection, schedule: Q01DX009 (ip), vehicle: water 89 % of control | dose: 50.0 mg/kg/injection, schedule: Q01DX009 (ip), vehicle: water 95 % of control | dose: 100.0 mg/kg/injection, schedule: Q01DX009 (ip), vehicle: water 94 % of control | dose: 200.0 mg/kg/injection, schedule: Q01DX009 (ip), vehicle: water 91 % of control

[C-]#[O+].[C-]#[O+].[C-]#[O+].[C-]#[O+].[C-]#[O+].[Cr].c1ccc(O[PH+](Oc2ccccc2)Oc2ccccc2)cc1
inactive: dose: 50.0 mg/kg/injection, schedule: Q01DX009 (ip), vehicle: saline with Tween-80 96 % of control | [3] 96 % of control | [4] 91 % of control

CC1(C)CC(Br)(Cc2ccccc2)C(=O)c2ccccc21 (configuration not stated)
inactive: [3] 95 % of control | [4] 94 % of control | [5] 94 % of control

CC(=O)Nc1ccc2c(c1)C(=O)c1cc(NC(C)=O)ccc1-2
inactive: dose: 100.0 mg/kg/injection, schedule: Q01DX001 (ip), vehicle: saline with Tween-80 98 % of control | dose: 200.0 mg/kg/injection, schedule: Q01DX001 (ip), vehicle: saline with Tween-80 111 % of control | dose: 400.0 mg/kg/injection, schedule: Q01DX001 (ip), vehicle: saline with Tween-80 98 % of control

C(=NCc1ccccc1)c1ccccc1-c1ccccc1C=NCc1ccccc1
inactive: [8] 97 % of control | [9] 107 % of control | [10] 106 % of control

Cc1ccc2nc(-c3ccccc3N)[nH]c2c1
inactive: [8] 87 % of control | [9] 92 % of control | [10] 89 % of control

CCCCC(C#N)C(=O)OCC (configuration not stated)
inactive: [8] 96 % of control | [9] 93 % of control

Cn1nc2ccccc2c1C#N
inactive: dose: 50.0 mg/kg/injection, schedule: Q01DX001 (ip), vehicle: saline 102 % of control | [1] 103 % of control | [2] 96 % of control

Cc1c2ccccc2c(C)c2c1ccc1ccccc12
inactive: dose: 25.0 mg/kg/injection, schedule: Q01DX009 (ip), vehicle: saline with Tween-80 106 % of control | [8] 106 % of control | dose: 125.0 mg/kg/injection, schedule: Q04DX003 (ip), vehicle: Klucel (hydroxypropylcellulose) (HPC) 121 % of control

NCCS/C=C/C(=O)Oc1ccc(Br)cc1
inactive: [8] 103 % of control | [9] 96 % of control

Clc1ccc(CN2CN(Cc3ccc(Cl)cc3)CN(Cc3ccc(Cl)cc3)C2)cc1
inactive: [3] 95 % of control | [8] 100 % of control | [4] 97 % of control | [9] 97 % of control | [5] 100 % of control | [10] 97 % of control

O=C1CCCC1(c1ccccc1)c1ccccc1
inactive: [3] 101 % of control | [8] 91 % of control | [4] 101 % of control | [9] 91 % of control | [5] 95 % of control | [10] 94 % of control

Cc1ccc(NS(=O)(=O)c2ccc([N+](=O)[O-])cc2)cc1
inactive: [3] 93 % of control | [4] 98 % of control | [5] 105 % of control

Cc1cc2nc(NN)[nH]c2cc1C
inactive: [8] 98 % of control | [9] 98 % of control | [10] 114 % of control

C[N+](C)(C)CSSC[N+](C)(C)C
inactive: dose: 12.5 mg/kg/injection, schedule: Q04DX002 (ip), vehicle: saline 96 % of control | [6] 96 % of control | [7] 103 % of control

CC(=O)Oc1ccccc1C(=O)O
inactive: dose: 31.3 mg/kg/injection, schedule: Q01DX009 (ip), vehicle: saline sonified 106 % of control | dose: 31.3 mg/kg/injection, schedule: Q01DX009 (ip), vehicle: saline with Tween-80 100 % of control | dose: 50.0 mg/kg/injection, schedule: Q03HX024 (ip), vehicle: saline 97 % of control | dose: 62.5 mg/kg/injection, schedule: Q01DX009 (ip), vehicle: saline sonified 101 % of control | dose: 62.5 mg/kg/injection, schedule: Q01DX009 (ip), vehicle: saline with Tween-80 98 % of control | dose: 100.0 mg/kg/injection, schedule: Q03HX024 (ip), vehicle: saline 97 % of control | dose: 125.0 mg/kg/injection, schedule: Q01DX009 (ip), vehicle: saline sonified 98 % of control | dose: 125.0 mg/kg/injection, schedule: Q01DX009 (ip), vehicle: saline with Tween-80 96 % of control and 100 % of control | dose: 250.0 mg/kg/injection, schedule: Q01DX009 (ip), vehicle: saline with Tween-80 96 % of control | dose: 500.0 mg/kg/injection, schedule: Q01DX001 (ip), vehicle: saline with Tween-80 104 % of control | dose: 1000.0 mg/kg/injection, schedule: Q01DX001 (ip), vehicle: saline with Tween-80 104 % of control

[Cl][Pt+2][Cl].[NH-]c1cc(Cl)c(Cl)c(Cl)c1[NH-]
inactive: dose: 2.5 mg/kg/injection, schedule: Q01DX009 (ip), vehicle: saline with Tween-80 105 % of control | dose: 5.0 mg/kg/injection, schedule: Q01DX009 (ip), vehicle: saline with Tween-80 100 % of control | dose: 10.0 mg/kg/injection, schedule: Q01DX009 (ip), vehicle: saline with Tween-80 100 % of control | dose: 20.0 mg/kg/injection, schedule: Q01DX009 (ip), vehicle: saline with Tween-80 107 % of control | dose: 40.0 mg/kg/injection, schedule: Q01DX009 (ip), vehicle: saline with Tween-80 94 % of control

COC(=O)C1=C(N)CCc2ccccc21
inactive: [3] 91 % of control | [4] 96 % of control | [5] 96 % of control
